US20260325542A1, “CANCER TARGETING COMPLEX, AND COMPOSITION COMPRISING SAME FOR PREVENTING OR TREATING CANCER” (EWHA UNIVERSITY - INDUSTRY COLLABORATION FOUNDATION, priority 2023, published 2026)
pIC50: −log10 of the molar value. Values belong to the compound of their own block, whether it stands above or below them.

Key:
4T1 cells = test: CCK-8 assay, toxicity on cancer cells; format: cell-based, mouse; conditions: CCK-8, 48 hours
Method: The toxicity of ARV-771 and ECMal-PROTAC on cancer cells was analyzed by the CCK-8 (cell counting kit-8) assay. 4T1 cells were dispensed into a 96-well culture plate at 3×10^3 cells per well. They were cultured for 24 hours at 37° C. and 5% carbon dioxide atmosphere. The cells were treated with different concentrations of ARV-771 (0.01 to 100 μM), the complex for cancer targeting (ECMal-PROTAC) of example 1 (0.01 to 100 μM), and the complex for cancer targeting (Mal-PROTAC) of example 2 (0.01 to 100 μM) separately, and cultured for 48 hours. After exposing each well to 10% CCK-8-containing culture media for 30 minutes, the viability of 4T1 cells treated with ARV-771 or 4T1 cells treated with ECMal-PROTAC or Mal-PROTAC was analyzed with a microplate reader. The change in cell viability according to the concentration of ARV-771 or ECMal-PROTAC or Mal-PROTAC was calculated using GraphPad Prism 8 software (GraphPad Software, San Diego, CA, USA) by fitting the IC50 (haf-maximal inhibitory concentration) value.

[1] = target: T1, BSA (bovine serum albumin) (Bos taurus, UniProt P02769); test: In vitro binding of ECMal-PROTAC to albumin (thiol-maleimide reaction), RP-HPLC; conditions: ARV-771 140 μM, BSA 200 μM; mixed for more than 60 minutes
T1 construct: free Cys34 thiol reacts with maleimide
Method: The binding rate of ECMal-PROTAC from example 1 and albumin was confirmed through RP-HPLC. Specifically, a BSA solution (200 μM) diluted with PBS was co-incubated by mixing it with an ECMal-PROTAC aqueous solution (140 μM) of example 1 at a 1:1 volume ratio. The culture was collected at incubation times of 0 minutes, 5 minutes, 30 minutes, and 60 minutes. It was quenched with mercaptoethanol, and HPLC spectra for each sample were acquired through concentration gradient of the eluent (ACN/H2O, 20/80 to 80/20 (v/v), 30 minutes).
To verify the albumin binding ability of the complex for cancer targeting (ECMal-PROTAC) of example 1, the mixture of BSA and the complex for cancer targeting (ECMal-PROTAC) was analyzed by LC-MS spectrum, and compared with the LC-MS spectrum of free BSA.
FIG. 4 is the HPLC spectrum of a mixture of BSA and the complex for cancer targeting (ECMal-PROTAC). According to this, it can be seen that BSA and the complex for cancer targeting (ECMal-PROTAC) rapidly bind through a thiol-maleimide click chemical reaction. To confirm the albumin binding ability of the complex for cancer targeting (ECMal-PROTAC) of example 1, bovine serum albumin (BSA), which has a structure similar to human serum albumin (HSA), was used for analysis.
At this time, the HPLC spectra were also analyzed for a co-incubation of ARV-771 (140 μM) and BSA solution (200 μM) mixed at a 1:1 volume ratio as a comparative example, and for the ECMal-PROTAC solution and BSA solution alone without any treatment of example 1.
From the HPLC results for the BSA and complex for cancer targeting (ECMal-PROTAC) mixture in Experimental Example 1 and the thiol-blocked BSA and complex for cancer targeting (ECMal-PROTAC) mixture in Experimental Example 2, the reduction in the HPLC peak area associated with the complex for cancer targeting (ECMal-PROTAC) was quantified.

BRD4 and c-Myc = test: Immunofluorescence of excised cancer tissue (DAPI, anti-BRD4, anti-c-Myc); format: in vivo, mouse; conditions: FIG. 33
Method: (§1) The control group was administered saline (10 mg/kg) once every 3 days for 15 days through the tail vein (total 4 administrations). The comparison group was administered ARV-771 (10 mg/kg) once every 3 days for 15 days through the tail vein (total 4 administrations). The example group was administered ECMal-PROTAC 10 mg/kg (wquiv. to ARV-771) of example 1 once every 3 days for 15 days through the tail vein (total 4 administrations).
FIG. 33 is an image taken with a confocal laser scanning microscope after staining cancer tissue excised from the control group (Control, Saline), the comparison group (ARV-771, intravenous injection), and the example group (ECMal-PROTAC, intravenous injection) with DAPI, anti-BRD4, and anti-c-Myc.

BRD4 = target: T2, BRD4 (Mus musculus, UniProt Q9ESU6); test: Western blot, BRD4 degradation in 4T1 cells; format: cell-based; conditions: 24 hours
T2 construct: Western blot after PROTAC (ARV-771 release, VHL recruiting)
Method: (§2) Accordingly, Western blot analysis was performed to confirm the anticancer ability by evaluating the presence or absence of degradation of BRD4 and other related proteins (e.g., c-Myc and Bcl-2) when cancer cells were treated with the complex for cancer targeting (ECMal-PROTAC) of example 1. The complex for cancer targeting (ECMal-PROTAC) of example 1 and ARV-771 were prepared as samples.
(§3) First, 1×10^5 4T1 cells were dispensed into each well of a 6-well culture plate and cultured for 24 hours at 37° C. and 5% carbon dioxide atmosphere. The cell culture medium was supplemented with various concentrations of ARV-771 (0 to 10 μM) or the complex for cancer targeting (ECMal-PROTAC) of example 1 (0 to 10 μM), and cultured at 37° C. for 24 hours. After the culture was completed, the cells were washed 3 times with PBS, and lysed with a lysis buffer containing 1% […]. Cell debris from the recovered lysate was removed by centrifugation at 12,000 rpm for 25 minutes. After recovering the supernatant, the protein amount was measured using a BCA kit. The supernatant was loaded onto a 10% sodium dodecyl sulfate-polyacrylamide gel. Electrophoresis (SDS-PAGE) was performed, followed by blotting onto a polyvinylidene difluoride (PVDF) membrane. After blotting, the PVDF membrane was treated with 5% BSA-containing tris buffered saline containing 0.1% Tween 20 (TBS-T) for 2 hours to suppress the non-specific binding of IgG (immunoglobulin G). It was immediately exposed to a rabbit anti-mouse primary antibody (1,000:1). After treating at 4° C. for 24 hours, the PVDF membrane was washed 3 times with TBS-T and further incubated with an HRP-conjugated mouse anti-rabbit IgG antibody at room temperature for 1 hour. The immunoreactive bands on the PVDF membrane were analyzed through an ECL (enhanced chemiluminescence) system.

[2] = tested on: organ tissue and cancer tissue; test: H&E histology of major organs and cancer tissue; format: in vivo, mouse; conditions: excised after 15 days
Method: as §1
The control group, the comparison group, and the example group were euthanized after 15 days, and major organs (heart, liver, lung, spleen, kidney) and cancer tissue were excised.
Furthermore, to analyze cancer cell apoptosis, TUNEL (terminal deoxynucleotidyl transferase dUTP nick end labeling) analysis was performed on cancer tissue excised from the control group, the comparison group, and the example group. Next, histological analysis was performed by H&E (hematoxylin & eosin) staining of the major organ tissues and cancer tissue of each excised group.
According to FIG. 29, major organ tissue and cancer tissue were excised from the control group, the comparison group, and the example group after 15 days. The excised organ tissue and cancer tissue were stained with H&E (hematoxylin & eosin). The H&E stained tissue was observed using a BX51 optical microscope (Olympus, Tokyo, Japan) and a TCS SP8 confocal laser microscope.

[3] = Body weight and systemic side effects; format: in vivo, mouse; conditions: 10 mg/kg, i.v., once every 3 days for 15 days
Method: as §1
(§4) Tumor size and body weight were measured every two days for the control group, the comparison group, and the example group.

4T1 tumor = test: In vivo anticancer efficacy, tumor size in 4T1 cancer animal model; parameters: species or system mouse; conditions: 10 mg/kg, tail vein, once every 3 days for 15 days
Method: 5-week-old female Balb/c and Balb/c nu/nu mice were purchased from NaraBio, Inc (Seoul, Republic of Korea). The mice underwent a 2-week acclimatization period before the example. The mice were raised under free-feeding conditions in a breeding room maintained at a temperature of 22±2° C. and humidity of 40-60% during the example. The light and dark cycle was regulated at 12-hour intervals. All examples were conducted in compliance with the relevant laws and institutional guidelines of the KIST Institutional Animal Care and Use Committee (IACUC; Approval No.: 2021-143).
Cancer animal models were prepared by inoculating 1×10^6 4T1 cells into the left thigh of the mice, and raising them until the tumor volume reached 50-80 mm^3.
For the preparation of the control group, the comparison group, and the example group, mice were randomly divided into groups of 5.
as §1, §4

liver tissue = test: TUNEL analysis of liver tissue; format: in vivo, mouse; conditions: administered alone (comparison group)
c-Myc = test: Western blot, c-Myc level in 4T1 cells; format: cell-based, mouse; conditions: 0 to 10 μM, 24 hours
Method: as §2
as §3, with “After blotting, the PVDF membrane was treated with 5% BSA-containing tris buffered saline containing 0.1% Tween 20 (TBS-T) for 2 hours to suppress the non-specific binding of IgG (immunoglobulin G). It was immediately exposed to a rabbit anti-mouse primary antibody (1,000:1). After treating at 4° C. for 24 hours, the PVDF membrane was washed 3 times with TBS-T and further incubated with an HRP-conjugated mouse anti-rabbit IgG antibody at room temperature for 1 hour.” left out

Bcl-2 = test: Western blot, Bcl-2 level in 4T1 cells; format: cell-based, mouse; conditions: 0 to 10 μM, 24 hours
Method: as §2
as §3, with “After blotting, the PVDF membrane was treated with 5% BSA-containing tris buffered saline containing 0.1% Tween 20 (TBS-T) for 2 hours to suppress the non-specific binding of IgG (immunoglobulin G). It was immediately exposed to a rabbit anti-mouse primary antibody (1,000:1). After treating at 4° C. for 24 hours, the PVDF membrane was washed 3 times with TBS-T and further incubated with an HRP-conjugated mouse anti-rabbit IgG antibody at room temperature for 1 hour.” left out

[4] = Particle size by DLS before and after binding to albumin; format: physicochemical; conditions: BSA 200 μM and ECMal-PROTAC 140 μM in PBS, 1:1, 30 minutes
Method: A BSA solution (200 μM) diluted with PBS was co-incubated by mixing it with an ECMal-PROTAC aqueous solution (140 μM) of example 1 at a 1:1 volume ratio.

T1 sequence (P02769 25-607): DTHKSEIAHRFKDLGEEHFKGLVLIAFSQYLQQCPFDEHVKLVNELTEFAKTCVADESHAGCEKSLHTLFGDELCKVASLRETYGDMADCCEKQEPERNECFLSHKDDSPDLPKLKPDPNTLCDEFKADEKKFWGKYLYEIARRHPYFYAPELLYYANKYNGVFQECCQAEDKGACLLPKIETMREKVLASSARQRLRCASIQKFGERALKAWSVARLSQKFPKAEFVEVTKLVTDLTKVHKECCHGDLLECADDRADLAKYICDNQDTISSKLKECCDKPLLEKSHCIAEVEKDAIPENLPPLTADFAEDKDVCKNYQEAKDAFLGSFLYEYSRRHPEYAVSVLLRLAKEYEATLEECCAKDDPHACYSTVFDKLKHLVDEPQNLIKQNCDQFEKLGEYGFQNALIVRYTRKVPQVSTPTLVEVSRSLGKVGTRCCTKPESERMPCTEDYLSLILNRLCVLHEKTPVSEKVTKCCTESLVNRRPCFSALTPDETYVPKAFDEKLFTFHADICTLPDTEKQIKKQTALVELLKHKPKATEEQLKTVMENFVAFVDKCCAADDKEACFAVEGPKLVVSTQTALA

interaction with BSA [1]: did not form an interaction | DC50 (BRD4; Western blot, read-out: DC50 (half-maximal degradation concentration), BRD4): 3.38 µM
Compound: Cc1ncsc1-c1ccc([C@H](C)NC(=O)[C@@H]2C[C@@H](O)CN2C(=O)[C@@H](NC(=O)COCCCOCCNC(=O)C[C@@H]2N=C(c3ccc(Cl)cc3)c3c(sc(C)c3C)-n3c(C)nnc32)C(C)(C)C)cc1 [ARV-771, reference compound]
pIC50 (4T1 cells; Mus musculus, 4T1, FIGS. 15A and 15B, read-out: IC50 against cancer cells): 5.20 | BRD4 degradation in cancer tissue (BRD4 and c-Myc): insufficient to induce apoptosis in cancer tissue | damage in cancer tissue (H&E) [2]: did not observe serious damage | damage in organ tissue (H&E) ([2]; liver, lung, spleen, kidney, heart): did not observe serious damage | systemic side effects [3]: did not show serious systemic side effects | weight loss [3]: no significant weight loss was observed | cancer size vs control (saline) (4T1 tumor): no significant difference | increase of cancer size from Day 0 (4T1 tumor): 14.8 times | effect on normal tissue and cancer tissue (liver tissue): affect both normal tissue and cancer tissue

degradation of overexpressed BRD4 protein (BRD4; 0 to 10 μM): induce BRD4 deficiency
Compound: Cc1ncsc1-c1ccc([C@H](C)NC(=O)[C@@H]2C[C@@H](OC(=O)CNC(=O)CCOCCOCCNC(=O)CCN3C(=O)C=CC3=O)CN2C(=O)[C@@H](NC(=O)COCCCOCCNC(=O)C[C@@H]2N=C(c3ccc(Cl)cc3)c3c(sc(C)c3C)-n3c(C)nnc32)C(C)(C)C)cc1 [Mal-PROTAC]
IC50 compared to native ARV-771 (4T1 cells): slight increase in IC50 compared to native ARV-771 | c-Myc level (c-Myc): reduced expression | Bcl-2 level (Bcl-2): reduced expression

Compound: BSA: bovine serum albumin; 98%
average particle size [4]: 5.43±1.42 nm
